“Also recorded” adds a separate entry of the source.
Tests used:
[1] = system: HeLa cervical carcinoma cells; test: MTT conversion assay, HeLa; type: cell-based, human; settings: Homo sapiens, 48 hrs treatment
Procedure: (§1) In particular, Enone-1 and Enone-2 were tested for cytotoxic activity in 17 cell lines representing a broad spectrum of human tumors. They include human colorectal carcinoma (Caco2, RKO, HCT15, HT29), liver (HepG2), lung (A549), ovarian carcinoma (A2780, 2780CP, AGE60, SKOV3), anaplastic large cell lymphoma (Mac1 and Mac2a), breast carcinoma (MDA-MB-231), cervical (HeLa), bladder cancer (VM-CUB-1), melanoma (BRO), and multiple myeloma (MR20).
(§2) Each assay was performed in triplicate and repeated in 2-3 independent experiments. Specifically, to measure cell survival, 20 μl of 10 mg/ml MTT (3-([…])-2,5-diphenyl tetrazolium bromide; Sigma) was added to each well and the plates were incubated at 37° C. in 5% CO2 for 3 hours. The supernatant was removed and the formed crystals were dissolved in 200 μl dimethyl sulphoxide. The plates were then analysed at 450 nm on a plate reader. Growth inhibition (reduction in survival) was calculated by expressing the differences in optical densities between treatment wells and control wells as a percentage of the control.

BRO melanoma cells = test: MTT conversion assay, BRO; type: cell-based, human; settings: Homo sapiens, 48 hrs treatment
Procedure: as §1, §2

[2] = system: SKOV3 ovarian carcinoma cells; test: MTT conversion assay, SKOV3; type: cell-based, human; settings: Homo sapiens, SK-OV-3, 48 hrs treatment
Procedure: as §1, §2

[3] = system: mdm2, p21, bax and bbc3/puma; test: RT-qPCR of p53 target genes in A2780 cells; type: cell-based, human; settings: 2.5 μM
Procedure: (§3) FIG. 8: Enones induce the p53 pathway. […] Cell lysates were analyzed for p53 and GAPDH (loading control). (B) A2780 cells were cultured in the presence or absence of 2.5 μM for the indicated time points before being analyzed for p53 and GAPDH levels. (C) Treatment of A2780 cells with 2.5 μM Enone-2 results in the up-regulation of p53-regulated genes (*p<0.05; **p<0.01; ***p<0.001, n=4). (D) Induction of p53 accumulation in AGE60 ovarian carcinoma cells following 6 or 14 hr exposure to 2.5 μM Enone-2. (E) Enone-1 induces the p53 pathway in A2780 cells which were cultured in the presence of 2.5 μM of the drug and analyzed as in (B). (F) Treatment of A2780 cells with 2.5 μM Enone-2 results in the up-regulation of p53-regulated genes (*p<0.05; **p<0.01; ***p<0.001, n=3).
(§4) The effects of Enone-2 on p53 and p53-dependent transcription of cell cycle and cell death-associated genes was confirmed by immunoblotting for p53 and by reverse transcription qPCR (RT-qPCR) for mdm2, p21, bax and bbc3/puma, established p53 target genes.

[4] = system: MB49 mouse bladder carcinoma tumors; test: Subcutaneous MB49 tumor growth in C57BL/6 mice; type: in vivo; settings: C57BL/6 female mice; 5 mg/kg intratumorally on days 7, 10, 14 and 20; vs saline
Procedure: The in vivo anti-tumor effect of Enones was determined by xenotransplantation of MB49 mouse bladder carcinoma cells in syngeneic, immunocompetent C57BL/6 female mice.
On this basis, the in vivo anti-tumor activity of Enone-2 was tested. Female mice were transplanted subcutaneously with 10^6 MB49 cells which formed tumors of approx. 40-60 mm^2 size by day 7. Mice were randomly separated in 2 groups of 5 animals each and injected intratumorally with 50 μl Enone-2 to achieve 5 mg/kg drug dose on days 7, 10, 14 and 20. The tumor size was monitored using a digital caliper and expressed in mm^2 by multiplying the length (the longest diameter) with the width (the shortest diameter perpendicular to length) of the tumor.

CDC6 = CDC6 protein (immunoblot) and RNA (RT-qPCR) levels in A2780 cells; type: cell-based, human; settings: 2.5 μM for 6 or 14 hours
Procedure: (§5) FIG. 4. Effects of Enone-2 on cell cycle and on the expression levels of replication licensing factors (RLF). (A) Representative cell cycle profiles showing progressive accumulation of A2780 ovarian carcinoma cells in the G2/M phase of the cell cycle following 24 hour treatment with 2.5 or 5 μM Enone-2. Quantification of results is shown in the form of pie charts on the right. PI: propidium iodide. (B) & (C) A2780 cells were treated with 2.5 μM Enone-2 for 6 or 14 hours and analyzed for CDC6 protein levels by immunoblot (B), or RNA levels by reverse transcription qPCR (C). The RNA levels of the RLF CDT1 were also measured by qPCR (C). ***P<0.001; **P<0.01.
(§6) Replication licensing factors (RLF) such as CDC6, MCM2-MCM7, ORC and CDT1 form origins of DNA replication in the G1 phase of the cell cycle and initiate DNA replication during the S phase. CDC6 is also involved in S-M checkpoint mechanisms that ensure that the entire genome is replicated just once per cell division. Cancer cells frequently display deregulated expression of RLFs; for example, CDC6 is over-expressed in colorectal and ovarian carcinoma and is associated with poor patient prognosis. […] Because of these characteristics, RLFs are considered as novel targets for anti-cancer therapy. […]

[5] = system: A2780 ovarian carcinoma cells; test: Clonogenic assay; type: cell-based, human; settings: 12 hours treatment with 2.5 μM or 5.0 μM, colonies on day 10, compared with cis-platin
Description: The long-term effects of Enone-2 on tumor cell survival were examined by using clonogenic assays which assess the ability of single cells to survive and reproduce to form colonies. […] The colonies formed on day 10 were visualized by staining with crystal violet following cell fixation and enumerated.

[6] = system: RKO colorectal carcinoma cells; test: MTT conversion assay, RKO; type: cell-based, human; settings: Homo sapiens, colon, 48 hrs treatment
Procedure: as §1, §2

[7] = system: HT29 colorectal carcinoma cells; test: MTT conversion assay, HT29; type: cell-based, human; settings: Homo sapiens, HT-29, HT29, colon, 48 hrs treatment
Procedure: as §1, §2

p53 [8] = test: p53 immunoblot in AGE60 cells; type: cell-based, human; settings: 2.5 μM, 6 or 14 hr
Procedure: as §3, §4

A549 lung cells = test: MTT conversion assay, A549; type: cell-based, human; settings: Homo sapiens, 48 hrs treatment
Procedure: as §1, §2

p53 [9] = test: p53 immunoblot in A2780 cells; type: cell-based, human; settings: 2.5 μM or increasing concentrations, 6 hrs or time course
Procedure: as §3, §4

[10] = system: Mac1 anaplastic large cell lymphoma cells; test: MTT conversion assay, Mac1; type: cell-based; settings: Homo sapiens, Mac1, ALCL, 48 hrs treatment
Procedure: as §1, §2

CDT1 = CDT1 RNA levels (qPCR) in A2780 cells; type: cell-based, human; settings: 2.5 μM for 6 or 14 hours
Procedure: as §5, §6

## C[C@@]1(O)C=CC(=O)[C@H]1c1ccc(F)c2ccccc12 (stereo in doubt) [Enone-2, 5-(4-fluoronaphthalen-1-yl)-4-hydroxy-4-methylcyclopent-2-en-1-one]
[1]
  IC50: 6.2 µM
BRO melanoma cells
  IC50: 3.8 µM
[2]
  IC50: 300 nM
[3]
  mdm2, p21, bax and bbc3/puma mRNA (p53-dependent gene expression): time-dependent upregulation
[4]
  subcutaneous tumor growth (tumor size): arrested tumor growth
CDC6
  CDC6 RNA and protein levels: reduce the key RLF CDC6 in a time-dependent manner at both RNA and protein levels
[5]
  number of colonies formed: lower than the equivalent dose of cis-platin
[6]
  IC50: 1200 nM
[7]
  IC50: 900 nM
p53 [8]
  p53 accumulation (immunoblot): robust p53 accumulation
A549 lung cells
  IC50: 1500 nM
p53 [9]
  p53 accumulation (immunoblot): robust p53 accumulation; also recorded: robustly induced p53 accumulation
[10]
  IC50: 1800 nM
CDT1
  CDT1 RNA levels: reduce CDT1 RNA levels
